Here are results for six compounds from patent US20090042962A1, “Therapeutic Agent for Keratoconjunctival Disorder” (SANTEN PHARMACEUTICAL CO., LTD., priority 2005, published 2009).

The test deals with corneal disorder models. Nature of the test: Test for therapeutic effect on corneal damage (exorbital lacrimal gland removal, fluorescein staining score). It is filed as in vivo, male SD rats. As to conditions: for Improvement ratio (%): instilled 6 times a day for 14 days; for Mean value of scores: instilled into both eyes 6 times a day for 14 days, fluorescein staining total score. How it is done:
Using male SD rats, corneal disorder models were produced in accordance with the method of Fujihara et al. (Invest. Opthalmol. Vis. Sci. 42 (1): 96-100 (2001)) After the production of the corneal disorder models, the corneal damage score was evaluated in accordance with the method of Murakami et al. (Journal of the eye 21 (1): 87-90 (2004)), and the improvement ratio of a corneal damage after instillation was obtained.
Male SD rats were systemically anesthetized by an administration of Nembutal. Subsequently the exorbital lacrimal gland of each rat was removed and a corneal damage was induced over a period of 2 months.
Then, 4′-[[4-methyl-6-(1-methylbenzimidazol-2-yl)-2-n-propylbenzimidazol-1-yl]methyl]-1,1′-biphenyl-2-carboxylic acid (hereinafter referred to as “Compound A”), 2-n-butyl-4-spirocyclopentane-1-[[2′-(1H-tetrazol-5-yl)-1,1′-biphenyl-4-yl]methyl]-2-imidazolin-5-one (hereinafter referred to as “Compound B”), 2-butyl-4-chloro-5-hydroxymethyl-1-[[2′-(1H-tetrazol-5-yl)-1,1′-biphenyl-4-yl]methyl]imidazole monopotassium salt (hereinafter referred to as “Compound C”), 2-ethoxy-1-[[2′-(1H-tetrazol-5-yl)-1,1′-biphenyl-4-yl]methyl]-1H-benzimidazol-7-carboxylic acid (hereinafter referred to as “Compound D”) […] N-[[2′-(1H-tetrazol-5-yl)-1,1′-biphenyl-4-yl]methyl]-N-valeryl-L-valine (hereinafter referred to as “Compound E”), or 4-(1-hydroxy-1-methylethyl)-2-n-propyl-1-[[2′-(1H-tetrazol-5-yl)-1,1′-biphenyl-4-yl]methyl]imidazol-5-carboxylic acid monohydrate (hereinafter referred to as “Compound F”) was administered to the rats as follows.
A physiological saline solution containing Compound A (0.005%) was instilled into both eyes 6 times a day for 14 days (one group consisting of 4 animals, 8 eyes).
A physiological saline solution containing Compound B (0.04%) was instilled into both eyes 6 times a day for 14 days (one group consisting of 4 animals, 8 eyes).
A physiological saline solution containing Compound C (0.5%) was instilled into both eyes 6 times a day for 14 days (one group consisting of 3 animals, 6 eyes).
A phosphate-buffered saline solution containing Compound D (0.004%) was instilled into both eyes 6 times a day for 14 days (one group consisting of 4 animals, 8 eyes).
A phosphate-buffered saline solution containing Compound E (0.004%) was instilled into both eyes 6 times a day for 14 days (one group consisting of 4 animals, 8 eyes).
A phosphate-buffered saline solution containing Compound F (0.004%) was instilled into both eyes 6 times a day for 14 days (one group consisting of 4 animals, 8 eyes).
In a control group, physiological saline or phosphate-buffered saline was instilled into both eyes 6 times a day for 14 days (one group consisting of 4 animals, 8 eyes).
Fourteen days after the start of instillation, the damaged parts of the cornea were stained with fluorescein. For each of the upper, middle and lower parts of the cornea, the degree of fluorescein staining was evaluated by scoring according to the criteria shown below and the improvement ratio of corneal damage was calculated from the mean value of the total scores for each of the above-mentioned parts. Also for normal eyes, the mean value of the total scores for each of the above-mentioned parts was obtained.
0: No punctate staining 1: Scattered staining (punctate staining being separated) 2: Moderate staining (a part of punctate staining being adjacent) 3: Heavy staining (punctate staining being barely separated)
Incidentally, the mean value of the scores is a mean of those of 8 cases or 6 cases, respectively.
Improvement ratio (%)={(control)−(the present compound)}/damage degree×100 Damage degree=(control)−(normal eye)

The mark [1] stands for this setting: 0.004% in phosphate-buffered saline, vs phosphate-buffered saline control, Table 2.
Setting [2] is: 0.004% in phosphate-buffered saline, Table 2 (normal eye 2.5, control 4.6).

Structures are written as SMILES.

`CCCCc1nc(Cl)c(CO)n1Cc1ccc(-c2ccccc2-c2nnn[nH]2)cc1.[K]` [Compound C, 2-butyl-4-chloro-5-hydroxymethyl-1-[[2′-(1H-tetrazol-5-yl)-1,1′-biphenyl-4-yl]methyl]imidazole monopotassium salt]: the “Improvement ratio (%)” value (0.5% in physiological saline, vs physiological saline control, Table 1) was determined as 87.5%. The “Mean value of scores” value (0.5% in physiological saline, Table 1 (normal eye 3.3, control 4.9)) came to 3.5.
For the compound `CCOc1nc2cccc(C(=O)O)c2n1Cc1ccc(-c2ccccc2-c2nnn[nH]2)cc1` [Compound D, 2-ethoxy-1-[[2′-(1H-tetrazol-5-yl)-1,1′-biphenyl-4-yl]methyl]-1H-benzimidazol-7-carboxylic acid], the “Improvement ratio (%)” value under setting [1] is listed as 47.6%. Also, the “Mean value of scores” value under setting [2] is given as 3.6.
Regarding `CCCc1nc2c(C)cc(-c3nc4ccccc4n3C)cc2n1Cc1ccc(-c2ccccc2C(=O)O)cc1` [Compound A, 4′-[[4-methyl-6-(1-methylbenzimidazol-2-yl)-2-n-propylbenzimidazol-1-yl]methyl]-1,1′-biphenyl-2-carboxylic acid], the “Improvement ratio (%)” value (0.005% in physiological saline, vs physiological saline control, Table 1) was found to be 62.5%. For the same compound, for the setting “0.005% in physiological saline, Table 1 (normal eye 3.3, control 4.9)”, the “Mean value of scores” value worked out at 3.9.
Consider `CCCCC1=NC2(CCCC2)C(=O)N1Cc1ccc(-c2ccccc2-c2nnn[nH]2)cc1` [Compound B, 2-n-butyl-4-spirocyclopentane-1-[[2′-(1H-tetrazol-5-yl)-1,1′-biphenyl-4-yl]methyl]-2-imidazolin-5-one], for which the “Improvement ratio (%)” value (0.04% in physiological saline, vs physiological saline control, Table 1) turned out to be 62.5%. In addition, the “Mean value of scores” value (0.04% in physiological saline, Table 1 (normal eye 3.3, control 4.9)) was 3.9.
For the compound `CCCCC(=O)N(Cc1ccc(-c2ccccc2-c2nnn[nH]2)cc1)[C@H](C(=O)O)C(C)C` [Compound E, N-[[2′-(1H-tetrazol-5-yl)-1,1′-biphenyl-4-yl]methyl]-N-valeryl-L-valine], the “Improvement ratio (%)” value under setting [1] came to 33.3%. Besides, the “Mean value of scores” value under setting [2] was 3.9.
As for `CCCc1nc(C(C)(C)O)c(C(=O)O)n1Cc1ccc(-c2ccccc2-c2nnn[nH]2)cc1.O` [Compound F, 4-(1-hydroxy-1-methylethyl)-2-n-propyl-1-[[2′-(1H-tetrazol-5-yl)-1,1′-biphenyl-4-yl]methyl]imidazol-5-carboxylic acid monohydrate], for the setting “0.004% in phosphate-buffered saline, vs phosphate-buffered saline control, Table 3”, the “Improvement ratio (%)” value was determined as 65.9%. Under “0.004% in phosphate-buffered saline, Table 3 (normal eye 2.2, control 6.3)”, the “Mean value of scores” value was found to be 3.6.
